Measured values as given in PubChem BioAssay (NCI).
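Assay format: 96-well plates, 48-hour exposure. Abbreviation: GI50, concentration required for 50% inhibition of growth. Definition used: TGI = concentration required for complete inhibition of growth.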

Columns and labels:
Test in all cases: NCI tumour cell line growth inhibition, 48 h
[1] = test system: SF-539 CNS
[2] = test system: A549 NSCLC
[3] = test system: SK-OV-3 ovarian
[4] = test system: SK-MEL-5 melanoma
[5] = test system: RXF 393 renal
[6] = test system: UACC-257 melanoma
[7] = test system: 786-0 renal
[8] = test system: BT-549 breast
[9] = test system: HT29 colon
[10] = test system: NCI-H226 lung
[11] = test system: UO-31 renal
[12] = test system: M14 melanoma
[13] = test system: IGROV1 ovarian
[14] = test system: HCT-116 colon
[15] = test system: A498 renal
[16] = test system: SNB-19 CNS
[17] = test system: SF-295 CNS
[18] = test system: HOP-92 NSCLC
[19] = test system: HCT-15 colon
[20] = test system: NCI-H460 lung
[21] = test system: MDA-MB-231 breast
[22] = test system: CAKI-1 renal
[23] = test system: DU-145 prostate
[24] = test system: RPMI-8226 leukemia
[25] = test system: T-47D breast
[26] = test system: EKVX NSCLC
[27] = test system: MALME-3M melanoma
[28] = test system: SF-268 CNS
[29] = test system: OVCAR-3 ovarian
[30] = test system: COLO 205 colon
[31] = test system: U251 CNS
[32] = test system: NCI-H522 lung
[33] = test system: NCI-H23 lung
[34] = test system: SN12C renal
[35] = test system: HOP-62 NSCLC
[36] = test system: KM12 colon
[37] = test system: OVCAR-8 ovarian
[38] = test system: OVCAR-5 ovarian
[39] = test system: ACHN renal
[40] = test system: HCC-2998 colon
[41] = test system: LOX IMVI melanoma
[42] = test system: CCRF-CEM leukemia
[43] = test system: TK-10 renal
[44] = test system: HL-60(TB) leukemia
[45] = test system: SK-MEL-2 melanoma
[46] = test system: MDA-MB-435
[47] = test system: SW-620 colon
[48] = test system: OVCAR-4 ovarian
[49] = test system: SR leukemia
[50] = test system: NCI/ADR-RES ovarian
[51] = test system: MOLT-4 leukemia
[52] = test system: HS 578T breast

SMILES: COc1cc2c3c(n(CCCN(C)C)c(=O)c2cc1OC)-c1cc2c(cc1C3=O)OCO2
- GI50 [1]: 162 nM
- TGI [1]: 1310 nM
- GI50 [2]: 515 nM
- TGI [2]: 2290 nM
- GI50 [3]: 1290 nM
- TGI [3]: 4330 nM
- GI50 [4]: 436 nM
- TGI [4]: 2090 nM
- GI50 [5]: 2480 nM
- TGI [5]: > 100000 nM
- GI50 [6]: 1180 nM
- TGI [6]: 2840 nM
- GI50 [7]: 79.9 nM
- TGI [7]: 583 nM
- GI50 [8]: 1400 nM
- TGI [8]: 3440 nM
- GI50 [9]: 70.2 nM
- TGI [9]: 1780 nM
- GI50 [10]: 1400 nM
- TGI [10]: 5880 nM
- GI50 [11]: 926 nM
- TGI [11]: 2260 nM
- GI50 [12]: 422 nM
- TGI [12]: 1930 nM
- GI50 [13]: 1040 nM
- TGI [13]: 2380 nM
- GI50 [14]: 220 nM
- TGI [14]: 1870 nM
- GI50 [15]: 9920 nM
- TGI [15]: 33400 nM
- GI50 [16]: 554 nM
- TGI [16]: 6120 nM
- GI50 [17]: 38.7 nM
- TGI [17]: 1650 nM
- GI50 [18]: 1840 nM
- TGI [18]: 10600 nM
- GI50 [19]: 331 nM
- GI50 [20]: 281 nM
- TGI [20]: 3370 nM
- GI50 [21]: 972 nM
- TGI [21]: 2760 nM
- GI50 [22]: 368 nM
- TGI [22]: 1770 nM
- GI50 [23]: 144 nM
- TGI [23]: 1690 nM
- GI50 [24]: 182 nM
- TGI [24]: 1190 nM
- GI50 [25]: 496 nM
- TGI [25]: 3940 nM
- GI50 [26]: 1460 nM
- TGI [26]: 3390 nM
- GI50 [27]: 163 nM
- TGI [27]: 1980 nM
- GI50 [28]: 1110 nM
- TGI [28]: 5590 nM
- GI50 [29]: 1330 nM
- TGI [29]: 2910 nM
- GI50 [30]: 944 nM
- TGI [30]: 11700 nM
- GI50 [31]: 127 nM
- TGI [31]: 4000 nM
- GI50 [32]: 805 nM
- TGI [32]: 4740 nM
- GI50 [33]: 165 nM
- TGI [33]: 1590 nM
- GI50 [34]: 935 nM
- TGI [34]: 2750 nM
- GI50 [35]: 18.2 nM
- TGI [35]: 421 nM
- GI50 [36]: 678 nM
- TGI [36]: 2680 nM
- GI50 [37]: 432 nM
- TGI [37]: 3040 nM
- GI50 [38]: 1200 nM
- TGI [38]: 2440 nM
- GI50 [39]: 146 nM
- TGI [39]: 1140 nM
- GI50 [40]: < 35.7 nM
- GI50 [41]: 66.2 nM
- TGI [41]: 1580 nM
- GI50 [42]: < 10 nM
- TGI [42]: 403 nM
- GI50 [43]: 1480 nM
- TGI [43]: 3260 nM
- GI50 [44]: 1010 nM
- TGI [44]: 3330 nM
- GI50 [45]: 3450 nM
- TGI [45]: 13100 nM
- GI50 [46]: 650 nM
- TGI [46]: 2130 nM
- TGI [47]: 1900 nM
- GI50 [48]: 467 nM
- TGI [48]: 2880 nM
- GI50 [49]: < 10 nM
- TGI [49]: 112 nM
- GI50 [50]: 67.8 nM
- TGI [50]: 564 nM
- GI50 [51]: < 10 nM
- TGI [51]: 3400 nM
- GI50 [52]: 2300 nM
- TGI [52]: 5930 nM
